Source: patent publication US8492515B2 (priority 2008, dated 2013)
Square brackets hold non-standard residues; d marks the D form. Peptide text beside a SMILES is read from it. Ac6c = NC1(C(=O)O)CCCCC1

Test system: extended-spectrum β-lactamase producing E. coli strain (designation 5770)
Experiment: Systemic infection model, cisplatin-pretreated CD-1 mice, blood bacterial counts
Assay type: in vivo
Protocol: As peptide drugs, such as antimicrobial peptides, are predominantly cleared through the kidneys (Klootwijk et al., 1997. J. Clin. Endocrinol. Metab. 82: 3068-3073) and the kidney functions of mice are 20-fold faster than those of humans, CD-1 female mice of 15-20 g were pretreated with 18 mg/kg cisplatin for 3 days to impair kidney clearance similar to the levels observed in humans (Mathe et al., 2006. Lab. Anim. 40: 296-300) before they were challenged intraperitoneally (ip) with 10^8 CFU per g mouse of an extended-spectrum β-lactamase producing E. coli strain (designation 5770). Four, 8 and 12 hours after challenge 10 or 20 mg/kg peptide Chex1-Arg20 or 40 mg/kg imipenem (as a positive control) were administered ip to 10 mice in each group. Imipenem is a broad spectrum β-lactam antibiotic. Prior to drug administration at all three timepoints, blood was taken from the tail vein of 3-5 mice for determining blood bacterial counts. […] Antimicrobials were administered ip 4 hours after challenge 3 times in 4 hour intervals. Blood was taken immediately before antimicrobial treatments. Numbers in parentheses indicate the number of mice with <10^3 CFU/mL. Bacterial counts were determined 10 times from different dilution of blood from 5 mice in each group in each timepoints.

SMILES: CC(C)C[C@H](NC(=O)[C@H](Cc1ccc(O)cc1)NC(=O)[C@@H]1CCCN1C(=O)[C@H](CCCNC(=N)N)NC(=O)[C@@H]1CCCN1C(=O)[C@H](CCCCN)NC(=O)[C@H](CC(=O)O)NC(=O)[C@@H]1CCCN1C(=O)[C@H](CCCNC(=N)N)NC(=O)C1(N)CCCCC1)C(=O)N1CCC[C@H]1C(=O)N[C@@H](CCCNC(=N)N)C(=O)N1CCC[C@H]1C(=O)N[C@@H](CCCNC(=N)N)C(=O)N1CCC[C@H]1C(=O)N1CCC[C@H]1C(=O)N[C@@H](CCCNC(=N)N)C(=O)N1CCC[C@H]1C(=O)N[C@H](C(=O)N[C@@H](CCCNC(=N)N)C(=O)O)C(C)C [Chex1-Arg20, Chex-Arg-Pro-Asp-Lys-Pro-Arg-Pro-Tyr-Leu-Pro-Arg-Pro-Arg--Pro-Pro-Arg-Pro-Val-Arg] (H-[Ac6c]RPDKPRPYLPRPRPPRPVR-OH; N-terminus and C-terminus assumed)
- bacterial count reduction (10 mg/kg): approximately 3 log 10 units
- Bacterial counts in blood after inoculation/challenge (10 mg/kg ip, 4 h (blood taken before first dose)): 3.2 × 10^5 CFU/mL
- Bacterial counts in blood after inoculation/challenge (10 mg/kg ip, 8 h): 8.2 × 10^3 CFU/mL
- number of mice with <10^3 CFU/mL (10 mg/kg ip, 8 h): 1/5
- Bacterial counts in blood after inoculation/challenge (10 mg/kg ip, 12 h): < 1.3 × 10^4 CFU/mL
- number of mice with <10^3 CFU/mL (10 mg/kg ip, 12 h): 1/5
- effect on mouse blood after a lethal E. coli infection (20 mg/kg): sterilized mouse blood
- Bacterial counts in blood after inoculation/challenge (20 mg/kg ip, 4 h (blood taken before first dose)): 3.2 × 10^5 CFU/mL
- Bacterial counts in blood after inoculation/challenge (20 mg/kg ip, 8 h): 5.5 × 10^4 CFU/mL
- number of mice with <10^3 CFU/mL (20 mg/kg ip, 8 h): 3/5
- Bacterial counts in blood after inoculation/challenge (20 mg/kg ip, 12 h): < 3.7 × 10^3 CFU/mL
- number of mice with <10^3 CFU/mL (20 mg/kg ip, 12 h): 3/5
- bacterial count reduction (after two doses of 20 mg/kg): 3.5 log 10 units
- mice having blood bacterial levels below detection limits (after two doses of 20 mg/kg): 60%
